Source: patent US11566057B2, “Long-acting co-agonists of the glucagon and GLP-1 receptors” (Merck Sharp & Dohme Corp., priority 2017, dated 2023)
pEC50: −log10 of the molar value. Read-outs that look alike come from different tables or passages of the source. Numbered stars: 1 amine (or outer) side, 2 acyl side, 3 side chain; on linkers, the order of the positions; unused ones are H or OH. Square brackets hold non-standard residues; d marks the D form. Side chains are listed from the residue outwards. Peptide text beside a SMILES is read from it. * marks the point of attachment. C20 diacid = O=C(O)CCCCCCCCCCCCCCCCCCC(=O)*; C18 diacid = O=C(O)CCCCCCCCCCCCCCCCC(=O)*; γGlu = O=C(O)[C@H](CCC(=O)[*:2])N[*:1]; Met(O2) = CS(=O)(=O)CC[C@H](N)C(=O)O; αMeD = C[C@](N)(CC(=O)O)C(=O)O; αMeS = C[C@](N)(CO)C(=O)O; AEEA = NCCOCCOCC(=O)O; Aib = CC(C)(N)C(=O)O

Columns and labels:
[1] = molecular target: T1, human GCGR (Homo sapiens, UniProt P47871); experiment: cAMP activity assay at the Glucagon receptor (GCGR); assay type: cell-based; details: for hGCGR/hGLP1R (hTone): ratio of GCGR EC50 to GLP1R EC50
T1 construct: expressed in transfected cells; growth medium holds Blasticidin and Hygromycin
In short: (§1)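 Peptides serially diluted from DMSO (10 points) and added to frozen-stock cells bearing human GLP1R (10,000 cells/well) or GCGR (30,000 cells/well), 1 h at RT, dark. EC50 by four-parameter logistic fit of HitHunter cAMPXS luminescence, read following overnight RT incubation.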

[2] = molecular target: T2, human GLP1R (Homo sapiens, UniProt P43220); experiment: cAMP activity assay at the GLP-1 receptor (GLP1R); assay type: cell-based
T2 construct: expressed in transfected cells; growth medium holds Blasticidin and Hygromycin
In short: as §1

[3] = cells expressing human GCGR, cAMP production, buffer with or without 20% human serum (not stated which), read-out: GCGR EC50 human
[4] = summary statement: EC50 at each of the glucagon and GLP-1 receptors, read-out: EC50 at the glucagon receptor
[5] = summary statement: EC50 at each of the glucagon and GLP-1 receptors, read-out: EC50 at the GLP-1 receptor

T2 sequence (P43220 24-463): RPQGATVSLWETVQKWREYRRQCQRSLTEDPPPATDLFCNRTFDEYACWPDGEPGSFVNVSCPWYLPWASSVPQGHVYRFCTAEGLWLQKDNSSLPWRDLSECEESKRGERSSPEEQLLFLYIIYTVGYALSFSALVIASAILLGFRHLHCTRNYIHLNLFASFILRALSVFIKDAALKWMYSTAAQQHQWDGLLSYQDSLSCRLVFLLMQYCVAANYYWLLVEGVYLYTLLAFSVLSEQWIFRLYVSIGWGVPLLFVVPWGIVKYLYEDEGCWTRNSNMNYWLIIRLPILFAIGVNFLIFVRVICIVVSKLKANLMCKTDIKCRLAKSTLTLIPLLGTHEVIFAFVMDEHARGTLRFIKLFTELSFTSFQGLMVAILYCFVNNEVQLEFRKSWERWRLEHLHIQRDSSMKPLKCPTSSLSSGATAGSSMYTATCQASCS
T1 sequence (P47871 26-477): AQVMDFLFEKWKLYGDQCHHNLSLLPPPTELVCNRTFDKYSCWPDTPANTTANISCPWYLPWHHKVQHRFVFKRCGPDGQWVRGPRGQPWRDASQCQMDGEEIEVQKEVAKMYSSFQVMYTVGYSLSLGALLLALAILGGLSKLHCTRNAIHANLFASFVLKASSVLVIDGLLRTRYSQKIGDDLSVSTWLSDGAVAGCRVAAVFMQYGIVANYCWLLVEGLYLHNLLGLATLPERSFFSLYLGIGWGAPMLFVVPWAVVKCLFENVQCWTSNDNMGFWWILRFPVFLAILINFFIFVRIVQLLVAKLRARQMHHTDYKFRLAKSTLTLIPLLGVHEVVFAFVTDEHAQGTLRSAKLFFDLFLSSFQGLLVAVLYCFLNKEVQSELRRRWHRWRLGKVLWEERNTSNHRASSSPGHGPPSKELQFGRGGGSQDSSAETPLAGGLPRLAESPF

Row | pEC50 [1, 3] | hGCGR/hGLP1R (hTone) [1] | pEC50 [1, 4] | pEC50 [2, 5] | pEC50 ([2]; cells expressing human GLP1R, cAMP production, buffer with or without 20% human serum (not stated which), read-out: GLP1R EC50 human) | Compound
1 | 8.34 | 2.7 | > 8.30 | > 8.30 |  | CC(C)C[C@H](NC(=O)[C@H](Cc1ccc(O)cc1)NC(=O)[C@H](CCCCN)NC(=O)[C@H](CO)NC(=O)[C@H](Cc1ccc(O)cc1)NC(=O)[C@H](CC(=O)O)NC(=O)[C@H](CO)NC(=O)[C@@H](NC(=O)[C@H](Cc1ccccc1)NC(=O)[C@@H](NC(=O)CNC(=O)[C@H](CCC(N)=O)NC(=O)C(C)(C)NC(=O)[C@@H](N)Cc1c[nH]cn1)[C@@H](C)O)[C@@H](C)O)C(=O)N[C@@H](CC(=O)O)C(=O)N[C@@H](CO)C(=O)N[C@@H](CCCNC(=N)N)C(=O)N[C@@H](C)C(=O)N[C@@H](C)C(=O)N[C@@H](CCCCNC(=O)COCCOCCNC(=O)COCCOCCNC(=O)CC[C@H](NC(=O)CCCCCCCCCCCCCCCCCCC(=O)O)C(=O)O)C(=O)N[C@@H](CC(=O)O)C(=O)N[C@@H](Cc1ccccc1)C(=O)N[C@H](C(=O)N[C@@H](CCC(N)=O)C(=O)N[C@@H](Cc1c[nH]c2ccccc12)C(=O)N[C@@H](CC(C)C)C(=O)N[C@@H](CCS(C)(=O)=O)C(=O)N[C@@H](CC(=O)O)C(=O)N[C@H](C(N)=O)[C@@H](C)O)C(C)C [TP577] (H-H[Aib]QGTFTSDYSKYLDSRAAK([AEEA-AEEA-γGlu-C20 diacid])DFVQWL[Met(O2)]DT-NH2; N-terminus assumed)
2 | 8.47 | 1.4 | > 8.30 | > 8.30 |  | CC(C)C[C@H](NC(=O)[C@H](Cc1c[nH]c2ccccc12)NC(=O)[C@H](CCC(N)=O)NC(=O)[C@@H](NC(=O)[C@H](Cc1ccccc1)NC(=O)[C@H](CC(=O)O)NC(=O)[C@H](CCCCNC(=O)COCCOCCNC(=O)COCCOCCNC(=O)CC[C@H](NC(=O)CCCCCCCCCCCCCCCCCCC(=O)O)C(=O)O)NC(=O)[C@H](C)NC(=O)[C@H](C)NC(=O)[C@H](CCCNC(=N)N)NC(=O)C(C)(C)NC(=O)[C@H](CC(=O)O)NC(=O)[C@H](CC(C)C)NC(=O)[C@H](Cc1ccc(O)cc1)NC(=O)[C@H](CCCCN)NC(=O)[C@H](CO)NC(=O)[C@H](Cc1ccc(O)cc1)NC(=O)[C@H](CC(=O)O)NC(=O)[C@H](CO)NC(=O)[C@@H](NC(=O)[C@H](Cc1ccccc1)NC(=O)[C@@H](NC(=O)CNC(=O)[C@H](CCC(N)=O)NC(=O)[C@](C)(CO)NC(=O)[C@@H](N)Cc1c[nH]cn1)[C@@H](C)O)[C@@H](C)O)C(C)C)C(=O)N[C@@H](CCS(C)(=O)=O)C(=O)N[C@@H](CC(=O)O)C(=O)N[C@H](C(N)=O)[C@@H](C)O [TP592] (H-H[αMeS]QGTFTSDYSKYLD[Aib]RAAK([AEEA-AEEA-γGlu-C20 diacid])DFVQWL[Met(O2)]DT-NH2; N-terminus assumed)
3 |  | 0.1 | > 8.30 | > 8.30 |  | CC(C)C[C@H](NC(=O)[C@H](Cc1ccc(O)cc1)NC(=O)[C@H](CCCCN)NC(=O)[C@H](CO)NC(=O)[C@H](Cc1ccc(O)cc1)NC(=O)[C@H](CC(=O)O)NC(=O)[C@H](CO)NC(=O)[C@@H](NC(=O)[C@H](Cc1ccccc1)NC(=O)[C@@H](NC(=O)CNC(=O)[C@H](CCC(N)=O)NC(=O)[C@](C)(CO)NC(=O)[C@@H](N)Cc1c[nH]cn1)[C@@H](C)O)[C@@H](C)O)C(=O)N[C@@H](CC(=O)O)C(=O)NC(C)(C)C(=O)N[C@@H](CCCNC(=N)N)C(=O)N[C@@H](C)C(=O)N[C@@H](C)C(=O)N[C@@H](CCCCNC(=O)COCCOCCNC(=O)COCCOCCNC(=O)CC[C@H](NC(=O)CCCCCCCCCCCCCCCCC(=O)O)C(=O)O)C(=O)N[C@@H](CC(=O)O)C(=O)N[C@@H](Cc1ccccc1)C(=O)N[C@H](C(=O)N[C@@H](CCC(N)=O)C(=O)N[C@@H](Cc1c[nH]c2ccccc12)C(=O)N[C@@H](CC(C)C)C(=O)N[C@@H](CCS(C)(=O)=O)C(=O)N[C@@](C)(CC(=O)O)C(=O)N[C@H](C(N)=O)[C@@H](C)O)C(C)C [TP620] (H-H[αMeS]QGTFTSDYSKYLD[Aib]RAAK([AEEA-AEEA-γGlu-C18 diacid])DFVQWL[Met(O2)][αMeD]T-NH2; N-terminus assumed)
4 |  | 0.9 | > 8.30 | > 8.30 |  | CC(C)C[C@H](NC(=O)[C@H](Cc1ccc(O)cc1)NC(=O)[C@H](CCCCN)NC(=O)[C@H](CO)NC(=O)[C@H](Cc1ccc(O)cc1)NC(=O)[C@H](CC(=O)O)NC(=O)[C@H](CO)NC(=O)[C@@H](NC(=O)[C@H](Cc1ccccc1)NC(=O)[C@@H](NC(=O)CNC(=O)[C@H](CCC(N)=O)NC(=O)C(C)(C)NC(=O)[C@@H](N)Cc1c[nH]cn1)[C@@H](C)O)[C@@H](C)O)C(=O)N[C@@H](CC(=O)O)C(=O)NC(C)(C)C(=O)N[C@@H](CCCNC(=N)N)C(=O)N[C@@H](C)C(=O)N[C@@H](C)C(=O)N[C@@H](CCCCNC(=O)COCCOCCNC(=O)COCCOCCNC(=O)CC[C@H](NC(=O)CCCCCCCCCCCCCCCCCCC(=O)O)C(=O)O)C(=O)N[C@@H](CC(=O)O)C(=O)N[C@@H](Cc1ccccc1)C(=O)N[C@H](C(=O)N[C@@H](CCC(N)=O)C(=O)N[C@@H](Cc1c[nH]c2ccccc12)C(=O)N[C@@H](CC(C)C)C(=O)N[C@@H](CCS(C)(=O)=O)C(=O)N[C@@](C)(CC(=O)O)C(=O)N[C@H](C(N)=O)[C@@H](C)O)C(C)C [TP588] (H-H[Aib]QGTFTSDYSKYLD[Aib]RAAK([AEEA-AEEA-γGlu-C20 diacid])DFVQWL[Met(O2)][αMeD]T-NH2; N-terminus assumed)
5 |  | 3.0 | > 8.30 | > 8.30 | 9.72 | CC(C)C[C@H](NC(=O)[C@H](Cc1ccc(O)cc1)NC(=O)[C@H](CCCCN)NC(=O)[C@H](CO)NC(=O)[C@H](Cc1ccc(O)cc1)NC(=O)[C@H](CC(=O)O)NC(=O)[C@H](CO)NC(=O)[C@@H](NC(=O)[C@H](Cc1ccccc1)NC(=O)[C@@H](NC(=O)CNC(=O)[C@H](CCC(N)=O)NC(=O)C(C)(C)NC(=O)[C@@H](N)Cc1c[nH]cn1)[C@@H](C)O)[C@@H](C)O)C(=O)N[C@@H](CC(=O)O)C(=O)N[C@@H](C)C(=O)N[C@@H](CCCNC(=N)N)C(=O)N[C@@H](C)C(=O)N[C@@H](C)C(=O)N[C@@H](CCC(N)=O)C(=O)N[C@@H](CC(=O)O)C(=O)N[C@@H](Cc1ccccc1)C(=O)N[C@H](C(=O)N[C@@H](CCCCNC(=O)COCCOCCNC(=O)COCCOCCNC(=O)COCCOCCNC(=O)CC[C@H](NC(=O)CCCCCCCCCCCCCCCCC(=O)O)C(=O)O)C(=O)N[C@@H](Cc1c[nH]c2ccccc12)C(=O)N[C@@H](CC(C)C)C(=O)N[C@@H](CCS(C)(=O)=O)C(=O)N[C@@H](CC(=O)O)C(=O)N[C@H](C(N)=O)[C@@H](C)O)C(C)C [TP680] (H-H[Aib]QGTFTSDYSKYLDARAAQDFVK([AEEA-AEEA-AEEA-γGlu-C18 diacid])WL[Met(O2)]DT-NH2; N-terminus assumed)
